Assay results taken from patent publication US7304093B2, “Ketone compounds and compositions for cholesterol management and related uses” (Esperion Therapeutics, Inc., priority 2000, dated 2007).
Read-outs that look alike come from different tables or passages of the source.

Legend:
female obese Zucker rats = assay: Serum lipid and glycemic control variables in chow-fed obese female Zucker rats, daily oral gavage for two weeks; assay type: in vivo, rat; conditions: Rattus norvegicus; for change in vivo at 100 mg/kg: 100 mg/kg daily oral; for change in vivo at 59 mg/kg: 59 mg/kg daily oral
Procedure: Ten- to twelve-week old (400-500 grams) female Zucker fatty rats Cr1: (Zuc)-faBR were obtained from Charles River Laboratories. Animals were acclimated to the laboratory environment for seven days. During the acclimation and study period, animals were housed by group in shoebox polycarbonate cages on Cellu-Dri bedding. The temperature and humidity in the animals' quarters (68-78° F.; 30-75% RH) were monitored and the airflow in the room was sufficient to provide several exchanges per hour with 100% fresh filtered air. An automatic timing device provided an alternating 12-hour cycle of light and dark. Rats received pelleted Purina Laboratory Rodent Chow® (5001) prior to and during the drug intervention period except for a 6-hour phase prior to blood sampling. Fresh water was supplied ad libitum via an automatic watering system. Compounds were dissolved, suspended by mixing in a dosing vehicle consisting of 1.5% carboxymethylcellulose/0.2% Tween 20 or 20% ethanol and 80% polyethylene glycol-200 [v/v]. Dose volume of vehicle or vehicle plus each compound was set at 0.25% of body weight in order to deliver the appropriate dose. Doses were administered daily by oral gavage, approximately between 8-10 AM. Regarding blood sampling, animals were fasted for 6 hours prior to all blood collections. Prior to and after 7 days of dosing, a 1.0- to 2.0-mL sample of blood was collected by administering O2/CO2 anesthesia and bleeding from the orbital venous plexus. Following 14 days of dosing, blood was collected by cardiac puncture after euthanasia with CO2. All blood samples were processed for separation of serum and stored at −80° C. until analysis. Commercially available kits were used to determine serum triglycerides (Roche Diagnostic Corporation, Kit No. 148899 or Boehringer Mannheim, Kit No. 1488872), total cholesterol (Roche Diagnostic Corporation, Kit No. 450061), non-esterified fatty acids (Wako Chemicals, Kit No. 994-75409) and β-hydroxybutyrate (Wako Chemicals, Kit No. 417-73501 or Sigma Kit. No. 310-0) on a Hitachi 912 Automatic Analyzer (Roche Diagnostic Corporation). In some instances, an in-house cholesterol reagent was used to determine total serum cholesterol levels. Serum lipoprotein cholesterol levels were determined by lipoprotein profile analysis. Lipoprotein profiles were analyzed using gel-filtration chromatography on a Superose 6HR (1×30 cm) column equipped with on-line detection of total cholesterol as described by Kieft et al (Kieft, K. A.; Bocan, T. M.; Krause, B. R. Rapid on-line determination of cholesterol distribution among plasma lipoproteins after high-performance gel filtration chromatography. J. Lipid Res. 1991, 32, 859-866.). The total cholesterol content of each lipoprotein was calculated by multiplying the independent values determined for serum total cholesterol by the percent area of each lipoprotein in the profile. The percent body weight gain and the ratio of liver to body weight is also determined. Selected data are shown as absolute values or as a percent change of the pretreatment values in Tables 8 and 9.
Select compounds (214c, 210c, and 210g) were further evalutated in the Zucker rat by performing a full dose response and measuring additional scrum variables including markers for diabetes (Tables 10-12).

primary rat hepatocytes = assay: Inhibition of lipid synthesis ([1-14C]-acetate incorporation) in primary cultures of rat hepatocytes; assay type: cell-based; conditions: Hepatocyte, 4 h incubation with [1-14C]-acetate
Procedure: Compounds were tested for inhibition of lipid synthesis in primary cultures of rat hepatocytes. Male Sprague-Dawley rats were anesthetized with intraperitoneal injection of sodium pentobarbital (80 mg/kg). Rat hepatocytes were isolated essentially as described by the method of Seglen (Seglen, P. O. Hepatocyte suspensions and cultures as tools in experimental carcinogenesis. J. Toxicol. Environ. Health 1979, 5, 551-560). Hepatocytes were suspended in Dulbecco's Modified Eagles Medium containing 25 mM D-glucose, 14 mM HEPES, 5 mM L-glutamine, 5 mM leucine, 5 mM alanine, 10 mM lactate, 1 mM pyruvate, 0.2% bovine serum albumin, 17.4 mM non-essential amino acids, 20% fetal bovine serum, […] and 20 μg/mL gentamycin) and plated at a density of 1.5×10^5 cells/cm^2 on collagen-coated 96-well plates. Four hours after plating, media was replaced with the same media without serum. Cells were grown overnight to allow formation of monolayer cultures. Lipid synthesis incubation conditions were initially assessed to ensure the linearity of [1-^14C]-acetate incorporation into hepatocyte lipids for up to 4 hours. Hepatocyte lipid synthesis inhibitory activity was assessed during incubations in the presence of 0.25 μCi [1-^14C]-acetate/well (final radiospecific activity in assay is 1 Ci/mol) and 0, 1, 3, 10, 30, 100 or 300 μM of compounds for 4 hours. At the end of the 4-hour incubation period, medium was discarded and cells were washed twice with ice-cold phosphate buffered saline and stored frozen prior to analysis. To determine total lipid synthesis, 170 μl of MicroScint-E® and 50 μl water was added to each well to extract and partition the lipid soluble products to the upper organic phase containing the scintillant. Lipid radioactivity was assessed by scintillation spectroscopy in a Packard TopCount NXT.

[1] = 168 h, 1 wk, 100% = 2-fold increase, Table 8, read-out: HDL-Cholesterol, Percent Change from Pre-Treatment
[2] = 168 h, 1 wk, 100% = 2-fold increase, Table 8, read-out: NonHDL-Cholesterol, Percent Change from Pre-Treatment
[3] = 168 h, 1 wk, 100% = 2-fold increase, Table 8, read-out: TG, Percent Change from Pre-Treatment
[4] = 336 h, 2 wk, 100% = 2-fold increase, Table 8, read-out: HDL-Cholesterol, Percent Change from Pre-Treatment
[5] = 336 h, 2 wk, 100% = 2-fold increase, Table 8, read-out: NonHDL-Cholesterol, Percent Change from Pre-Treatment
[6] = 336 h, 2 wk, 100% = 2-fold increase, Table 8, read-out: TG, Percent Change from Pre-Treatment
[7] = 168 h, 1 wk, Table 9, read-out: HDL-Cholesterol, Percent Change from Pre-Treatment
[8] = 168 h, 1 wk, Table 9, read-out: NonHDL-Cholesterol, Percent Change from Pre-Treatment
[9] = 168 h, 1 wk, Table 9, read-out: TG, Percent Change from Pre-Treatment
[10] = 336 h, 2 wk, Table 9, read-out: HDL-Cholesterol, Percent Change from Pre-Treatment
[11] = 336 h, 2 wk, Table 9, read-out: NonHDL-Cholesterol, Percent Change from Pre-Treatment
[12] = 336 h, 2 wk, Table 9, read-out: TG, Percent Change from Pre-Treatment

SMILES	change in vivo at 100 mg/kg (female obese Zucker rats; [1]) [%]	change in vivo at 100 mg/kg (female obese Zucker rats; [2]) [%]	change in vivo at 100 mg/kg (female obese Zucker rats; [3]) [%]	change in vivo at 100 mg/kg (female obese Zucker rats; [4]) [%]	change in vivo at 100 mg/kg (female obese Zucker rats; [5]) [%]	change in vivo at 100 mg/kg (female obese Zucker rats; [6]) [%]	melting point [°C]	IC50 (primary rat hepatocytes; Table 6) [nM]	other results
CC(C)(CCCCC(=O)CCCCC1(C(=O)O)CC1)C(=O)O [Compound 107c, 11-(1-Carboxycyclopropyl)-2,2-dimethyl-7-oxoundecanoic acid]	104	-84	-93	248	-20	-64	49 to 52	600	–
O=C(CCCCC1(C(=O)O)CC1)CCCCC1(C(=O)O)CC1 [Compound 107d, 1-[9-(1-Carboxycyclopropyl)-5-oxononyl]-1-cyclopropanecarboxylic acid]	180	22	-51	260	63	-28	132 to 134	300	–
CC(C)(CCCCC(=O)CCCCC1(C(=O)O)CCC1)C(=O)O [Compound 107e, 11-(1-Carboxycyclobutyl)-2,2-dimethyl-7-oxoundecanoic acid]	30	4	-54	60	28	-51	53 to 55	6000	–
O=C(CCCCC1(C(=O)O)CCC1)CCCCC1(C(=O)O)CCC1 [Compound 107f, 1-[9-(1-Carboxycyclobutyl)-5-oxononyl]-1-cyclo-butanecarboxylic acid]	-1	-32	-58	10	-40	-59	69 to 70	121000	–
O=C(CCCCC1(C(=O)O)CCCC1)CCCCC1(C(=O)O)CCCC1 [Compound 107g, 1-[9-(1-Carboxycyclopentyl)-5-oxononyl]-1-cyclopentanecarboxylic acid]	36	-68	-67	40	-67	-70	99 to 103	113000	–
CC(C)(CCCCCC(=O)CCCCCC1(C(=O)O)CC1)C(=O)O [Compound 107k, 13-(1-Carboxycyclopropyl)-2,2-dimethyl-8-oxotridecanoic acid]	43	-90	-93	84	-99	-98	65 to 66	1000	–
O=C(CCCCCC1(C(=O)O)CC1)CCCCCC1(C(=O)O)CC1 [Compound 107l, 1-[11-(1-Carboxycyclopropyl)-6-oxoundecyl]-1-cyclopropanecarboxylic acid]	136	-92	-95	171	-83	-94	122 to 123	500	–
O=C(CCCCCC1(C(=O)O)CCCC1)CCCCCC1(C(=O)O)CCCC1 [Compound 107m, 1-[11-(1-Carboxycyclopentyl)-6-oxoundecyl]-1-cyclopentanecarboxylic acid]	12	-54	-63	27	-32	-48	78 to 85	2000	–
CC(CCCC(=O)CCCC(C)(C(=O)O)c1ccccc1)(C(=O)O)c1ccccc1 (stereo not shown) [Compound 210b, 2,10-Dimethyl-6-oxo-2,10-diphenylundecanedioic acid]	–	–	–	–	–	–	44 to 46	–	change in vivo at 100 mg/kg (female obese Zucker rats; [7]): 4%; change in vivo at 100 mg/kg (female obese Zucker rats; [8]): 36%; change in vivo at 100 mg/kg (female obese Zucker rats; [9]): 10%; change in vivo at 100 mg/kg (female obese Zucker rats; [10]): 12%; change in vivo at 100 mg/kg (female obese Zucker rats; [11]): 65%; change in vivo at 100 mg/kg (female obese Zucker rats; [12]): 26%
CC(C)(Cc1cccc(C(=O)c2cccc(CC(C)(C)C(=O)O)c2)c1)C(=O)O [Compound 231, 3-{3-[3-(2-Carboxy-2-methylpropyl)-benzoyl]-phenyl}-2,2-dimethylpropionic acid]	–	–	–	–	–	–	46 to 48	–	change in vivo at 59 mg/kg (female obese Zucker rats; [7]): 2%; change in vivo at 59 mg/kg (female obese Zucker rats; [8]): -43%; change in vivo at 59 mg/kg (female obese Zucker rats; [9]): -24%; change in vivo at 59 mg/kg (female obese Zucker rats; [10]): 7%; change in vivo at 59 mg/kg (female obese Zucker rats; [11]): 34%; change in vivo at 59 mg/kg (female obese Zucker rats; [12]): 7%
CC(C)(CO)Cc1cccc(C(=O)c2cccc(CC(C)(C)CO)c2)c1 [Compound 232, Bis[3-(3-hydroxy-2,2-dimethylpropyl)-phenyl]-methanone]	–	–	–	–	–	–	–	–	change in vivo at 100 mg/kg (female obese Zucker rats; [7]): 1%; change in vivo at 100 mg/kg (female obese Zucker rats; [8]): -15%; change in vivo at 100 mg/kg (female obese Zucker rats; [9]): -29%; change in vivo at 100 mg/kg (female obese Zucker rats; [10]): -11%; change in vivo at 100 mg/kg (female obese Zucker rats; [11]): -5%; change in vivo at 100 mg/kg (female obese Zucker rats; [12]): -8%; IC50 (primary rat hepatocytes; Table 7, ranges: confidence of estimate insufficient to assign a value): 52000 nM
